Patent US20050065140A1, “Serotonine reuptake inhibitor” (priority 2001, published 2005)

Assays:
[1] = biological target: T1, [^3H]paroxetine binding (serotonin reuptake), cerebral cortex membrane preparation (Rattus norvegicus, UniProt P31652); experiment: Screening test using [^3H]paroxetine binding (Test Example 1); details: [^3H]paroxetine 0.15 nM, test concentration not given
T1 construct: 790 μl of the cerebral cortex membrane preparation (150 μg/tube in terms of protein); from tissue; host or cells: rat cerebral cortex membrane preparation
T1 sequence (P31652 whole entry): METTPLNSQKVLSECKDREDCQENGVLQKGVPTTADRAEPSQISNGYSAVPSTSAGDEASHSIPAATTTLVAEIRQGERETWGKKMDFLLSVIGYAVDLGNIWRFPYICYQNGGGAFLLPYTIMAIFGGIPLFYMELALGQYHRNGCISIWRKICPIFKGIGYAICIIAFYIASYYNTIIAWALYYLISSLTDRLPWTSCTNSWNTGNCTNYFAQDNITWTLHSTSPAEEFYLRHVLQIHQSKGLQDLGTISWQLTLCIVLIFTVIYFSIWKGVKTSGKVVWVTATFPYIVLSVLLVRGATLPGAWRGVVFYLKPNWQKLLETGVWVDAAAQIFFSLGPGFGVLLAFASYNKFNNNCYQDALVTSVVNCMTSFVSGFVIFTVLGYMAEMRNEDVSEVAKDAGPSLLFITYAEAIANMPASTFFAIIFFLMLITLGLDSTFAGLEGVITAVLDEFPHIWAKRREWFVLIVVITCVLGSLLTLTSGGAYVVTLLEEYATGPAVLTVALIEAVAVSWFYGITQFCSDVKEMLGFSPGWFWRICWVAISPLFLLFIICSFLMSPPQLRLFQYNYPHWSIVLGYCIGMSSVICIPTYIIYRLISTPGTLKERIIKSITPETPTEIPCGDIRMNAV
Description: Screening Test Using [^3H]Paroxetine Binding
The membrane preparation was prepared according to the method^1a) of D'amato et al. In detail, after a male rat was decapitated, the whole brain was immediately removed and the cerebral cortex was dissected therefrom under ice-cooling. A buffer solution (50 mM Tris-HCl (pH=7.4), 120 mM NaCl, 5 mM KCl) was added to the cerebral cortex in an amount of 25 times the wet weight of the cerebral cortex, followed by homogenization in an ice bath by the use of a Teflon-glass homogenizer. The homogenate was centrifuged at 4° C. and 45,000×g for 10 minutes, and the resulting precipitate was dispersed in an ice-cooled buffer solution (50 mM Tris-HCl (pH=7.4), 120 mM NaCl, 5 mM KCl) by the use of Hiscotron™, followed by centrifugation at 4° C. and 45,000×g for 10 minutes. The resulting precipitate was re-suspended and the washing procedure was repeated. The membrane preparation thus obtained was suspended in the same buffer solution as described above, and then subjected to cryopreservation at −80° C.
[^3H]paroxetine binding was measured according to the method^1b) of Habert E et al. In detail, 200 μl of a dilution (final concentration: 0.15 nM) of [^3H]paroxetine with 50 mM Tris-HCl (pH=7.4) buffer containing 120 mM NaCl and 5 mM KCl, 790 μl of the cerebral cortex membrane preparation (150 μg/tube in terms of protein), 10 μl of a solution of a test drug in dimethyl sulfoxide and 1 ml of the above-mentioned buffer solution were mixed to prepare a liquid having a total volume of 2 ml. After this liquid was allowed to react at room temperature for 60 minutes, it was immediately filtered by suction at a low pressure through glass fiber filter. The glass fiber filter was washed 4 times with 4 ml of the same buffer solution as above and then transferred to a glass vial containing 4 ml of ACS-II (Amersham), and the radioactivity remaining on the filter was measured with a liquid scintillation counter.
Non-specific binding of [^3H]paroxetine was defined as the amount of [^3H]paroxetine bound in the presence of 100 μM 5-HT.
(§1) Rate of binding inhibition was calculated by the following equation:
(§2) Rate of binding inhibition (%)=100−100×{[amount of [^3H]paroxetine bound in the presence of test substance]−[amount of [^3H]paroxetine bound in the presence of 100 μM 5-HT]/[amount of [^3H]paroxetine bound in the absence of test substance]−[amount of [^3H]paroxetine bound in the presence of 100 μM 5-HT]}

[2] = biological target: T2, serotonin 1A receptors ([^3H]8-OH-DPAT binding, hippocampus membrane preparation) (Rattus norvegicus, UniProt P19327); experiment: [^3H]8-OH-DPAT binding test (Test Example 2); details: [^3H]8-OH-DPAT 2 nM, test concentration not given
T2 construct: 146 μl of the hippocampus membrane preparation (80 μg/tube in terms of protein); from tissue; host or cells: rat hippocampus membrane preparation
T2 sequence (P19327 1-422): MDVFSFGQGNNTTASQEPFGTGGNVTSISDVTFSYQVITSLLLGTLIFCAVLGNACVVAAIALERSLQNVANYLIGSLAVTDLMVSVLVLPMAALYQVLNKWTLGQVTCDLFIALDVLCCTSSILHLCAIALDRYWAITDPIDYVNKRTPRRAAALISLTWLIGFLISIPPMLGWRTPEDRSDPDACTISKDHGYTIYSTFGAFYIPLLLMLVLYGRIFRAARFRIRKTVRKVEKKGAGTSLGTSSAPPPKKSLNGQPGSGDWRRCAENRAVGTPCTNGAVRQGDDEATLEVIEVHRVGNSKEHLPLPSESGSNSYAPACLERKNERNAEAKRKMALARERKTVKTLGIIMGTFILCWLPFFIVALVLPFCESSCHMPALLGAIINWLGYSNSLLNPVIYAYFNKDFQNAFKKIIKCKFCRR
Description: [^3H]8-OH-DPAT Binding Test
The test was carried out according to the method^2 of Hall M. D. et al. After about one week of pre-breeding, a male rat was decapitated and the brain was immediately removed. The hippocampus was dissected from the brain on ice, and 50 mM Tris-HCl (pH=7.4) was added to the hippocampus in an amount of 40 times the wet weight of the hippocampus, followed by homogenization (3 min, 1 stroke/min) in an ice bath by the use of a Teflon-glass homogenizer. Then, the homogenate was centrifuged (4° C.) at 40,000×g for 10 minutes. The resulting precipitate was dispersed in an ice-cooled buffer solution (50 mM Tris-HCl (pH=7.4)) by the use of Hiscotron™, followed by centrifugation (4° C.) at 40,000×g for 10 minutes. Moreover, the resulting precipitate was re-suspended and the washing procedure was repeated once. The precipitate thus obtained was dispersed in an ice-cooled buffer solution (50 mM Tris-HCl (pH=7.4)) by the use of Hiscotron™, and the resulting dispersion was incubated at 37° C. for 1 hour and then centrifuged (4° C.) at 40,000×g for 10 minutes. Furthermore, the resulting precipitate was re-suspended and the washing procedure was repeated once. The membrane preparation thus obtained was suspended in the same buffer solution as described above, and then subjected to cryopreservation at −80° C.
Measurement was carried out by using a liquid for reaction (total volume: 200 μl) obtained by adding 50 μl of [^3H]8-OH-DPAT (final concentration: 2 nM), 4 μl of a solution of a test drug and 146 μl of the hippocampus membrane preparation (80 μg/tube in terms of protein) to a buffer solution containing 50 mM Tris-HCl (pH=7.4) and 4 mM CaCl2. After the liquid for reaction was allowed to react at room temperature for 30 minutes, it was immediately filtered by suction at a low pressure through glass fiber filter. The glass fiber filter was washed twice with 250 μl of a buffer solution and then added to a glass vial containing 4 ml of ACS-II (Amersham), and the radioactivity bound to receptors and remaining on the filter was measured with a liquid scintillation counter. Non-specific binding of [^3H]8-OH-DPAT was defined as the amount of [^3H]8-OH-DPAT bound in the presence of 1 μM 8-OH-DPAT.
as §1
as §2, with “of [^3H]8-OH-DPAT” for “of [^3H]paroxetine”, “of 1” for “of 100”, “μM 8-OH-DPAT]/[amount” for “μM 5-HT]/[amount”, “μM 8-OH-DPAT]}” for “μM 5-HT]}”

Row | Compound | melting point | Rate of inhibition of [^3H]paroxetine binding (%) [1] | Rate of inhibition of [^3H]8-OH-DPAT binding (%) [2]
1 | COc1ccc(Br)c(CC2CCN(CCC[C@H]3CC[C@@H](N)CC3)CC2)c1.Cl.Cl | 238 °C | – | –
2 | CO[C@H]1CC[C@@H](CCCN2CCC(Cc3cc(OC(C)C)ccc3Br)CC2)CC1.Cl | 134 °C | – | –
3 | COCC(=O)N[C@H]1CC[C@H](CCN2CCC(Cc3cc(OC)ccc3Br)CC2)CC1.Cl | 132 °C | – | –
4 | CCN(CCO)[C@H]1CC[C@H](CCN2CCC(Cc3cc(OC)ccc3Br)CC2)CC1.Cl.Cl | 259 °C | – | –
5 | Cl.Cl.Fc1ccc(Br)c(CC2CCN(CC3CCc4ccccc4N3)CC2)c1 (stereo not drawn) | 245 °C | – | –
6 | COc1ccc(Br)c(CC2CCN(CCC3CCNCC3)CC2)c1.Cl.Cl [Example 1, 4-(2-Bromo-5-methoxybenzyl)-1-(2-(4-piperidinyl)ethyl)piperidine Dihydrochloride] | – | 81% | 47%
7 | CCNC(=O)N1CCC(CCN2CCC(Cc3cc(OC)ccc3Br)CC2)CC1.Cl [Example 32] | – | 97% | 73%
8 | CCN[C@H]1CC[C@@H](CCN2CCC(Cc3cc(OC(C)C)ccc3Br)CC2)CC1.Cl.Cl [Example 41, cis-N-(4-(2-(4-(2-bromo-5-isopropoxybenzyl)-piperidin-1-yl)ethyl)cyclohexyl)-N-ethylamine Dihydrochloride] | 247 °C | 78% | 86%
9 | CCN(C(C)=O)[C@H]1CC[C@H](CCN2CCC(Cc3cc(OC(C)C)ccc3Br)CC2)CC1.Cl [Example 52, trans-N-(4-(2-(4-(2-bromo-5-isopropoxy-benzyl)piperidin-1-yl)ethyl)cyclohexyl)-N-ethylacetamide Hydrochloride] | – | 90% | 60%
10 | COc1ccc(Br)c(CC2CCN(CCC3(CCO)CCCCC3)CC2)c1.Cl [Example 60, 2-(1-(2-(4-(2-Bromo-5-methoxybenzyl)-piperidin-1-yl)ethyl)cyclohexyl)ethanol Hydrochloride] | – | 91% | 98%
11 | COc1ccc(Br)c(CC2CCN(CC[C@H]3CC[C@@H](CCO)CC3)CC2)c1.Cl [Example 63] | 172 °C | – | –
12 | COc1ccc(N2CC(CN3CCC(Cc4cc(OC)ccc4Br)CC3)OC2=O)cc1.Cl (stereo not drawn) [Example 72, 5-(4-(2-Bromo-5-methoxybenzyl)piperidin-1-yl)methyl-3-(4-methoxyphenyl)oxazolidin-2-one hydrochloride] | – | 99% | 97%

Further lines, with some results ahead:

Row | melting point | Compound | Rate of inhibition of [^3H]paroxetine binding (%) [1] | Rate of inhibition of [^3H]8-OH-DPAT binding (%) [2]
13 | 290 °C | CCN[C@H]1CC[C@H](CCN2CCC(Cc3cc(OC(C)C)ccc3Br)CC2)CC1.Cl.Cl | – | –
14 | 234 °C | CCN[C@H]1CC[C@@H](CCCN2CCC(Cc3cc(OC)ccc3Br)CC2)CC1.Cl.Cl | – | –
15 | 242 °C | CCN(CC)[C@H]1CC[C@H](CCN2CCC(Cc3cc(OC)ccc3Br)CC2)CC1.Cl.Cl | – | –
16 | 253 °C | CCN(CC)[C@H]1CC[C@H](CCN2CCC(Cc3cc(OC(C)C)ccc3Br)CC2)CC1.Cl.Cl | – | –
17 | 209 °C | CCN(CC(F)(F)F)[C@H]1CC[C@H](CCN2CCC(Cc3cc(OC)ccc3Br)CC2)CC1.Cl.Cl | – | –
18 | 184 °C | COc1ccc(Br)c(CC2CCN(CCC3(CCO)CCCC3)CC2)c1.Cl | – | –
19 | 209 °C | COc1ccc(Br)c(CC2CCN(CC[C@H]3CC[C@@H](CO)CC3)CC2)c1.Cl | – | –
20 | 228 °C | CCOc1ccc(Br)c(CC2CCN(CC3CCc4ccccc4N3)CC2)c1.Cl.Cl (stereo not drawn) | – | –
